Measurements published in patent US9290454B2, “Substituted isoquinolines as CRTH2 receptor modulators” (Merck Sharp & Dohme Corp., priority 2012, dated 2016).

Target: hCRTH2 (Homo sapiens (Human), UniProt Q9Y5Y4)
Test: Radioligand binding assay ([3H]-PGD2, SPA or filtration)
Details: [3H]-PGD2 competition, membrane protein from HEK-hCRTH2 cell line, room temperature, SPA or filtration format
Procedure: Radioligand binding was performed using filtration or scintillation proximity assay (SPA) technology. SPA assays were done at room temperature in 10 mM HEPES pH 7.4, 1 mM EDTA containing 2 mM MnCl2 and 16 nM [^3H]-PGD2 (PerkinElmer, Waltham, Mass.) (164 Ci mmol-1), in a final volume of 0.05 mL. Competing ligands were diluted in dimethylsulfoxide and added using very low volumes (500 nL). The reaction was initiated by the addition of a mixture of 3.52 ug of membrane protein prepared from a human embryonic kidney (HEK)-hCRTH2 cell line adhered to 140 ug of wheatgerm agglutinin SPA beads (PerkinElmer). Total and non-specific binding were determined in the absence and the presence of a CRTH2 antagonist, respectively. The reaction was routinely conducted for 60 minutes at room temperature followed by centrifugation for 5 minutes at 1000 RPM. The radioactivity was measured with a TopCountNXT (PerkinElmer). Filtration binding assays were done in a similar way with minor differences. The assay volume was 0.20 mL and competing ligands in dimethylsulfoxide were added in 2 uL. [^3H]-PGD2 was used at 0.6 nM, and reactions were initiated by the addition of 10 ug of membrane protein. Reactions were terminated by filtration through GF/C filter plates (PerkinElmer) presoaked in 10 mM HEPES. After washing with buffer, plates were dried in a 50° C. oven for 1 h, scintillation cocktail was added and radioactivity was measured. Results determined using the SPA-based assay were similar to those from the filtration binding assay. Table A (below) sets forth the results of the binding assay for representative compounds of the invention.

hCRTH2, sequence (Q9Y5Y4 whole entry): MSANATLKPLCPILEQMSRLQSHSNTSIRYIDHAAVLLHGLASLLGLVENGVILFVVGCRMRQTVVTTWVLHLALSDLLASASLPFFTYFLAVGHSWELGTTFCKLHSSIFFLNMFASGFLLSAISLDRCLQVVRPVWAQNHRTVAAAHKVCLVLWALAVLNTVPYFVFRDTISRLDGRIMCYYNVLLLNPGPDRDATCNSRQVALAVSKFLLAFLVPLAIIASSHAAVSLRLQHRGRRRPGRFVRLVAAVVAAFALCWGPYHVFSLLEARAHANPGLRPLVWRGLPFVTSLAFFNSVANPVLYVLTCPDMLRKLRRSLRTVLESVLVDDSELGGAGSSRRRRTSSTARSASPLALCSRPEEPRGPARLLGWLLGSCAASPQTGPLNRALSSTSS

Row | Ki [nM] | Compound
1 | 363 | COc1ccccc1-n1c(CCCCC(=O)O)cc2cc(C(=O)N[C@H](C)c3ccc(F)cc3)ccc2c1=O (single isomer, unassigned) [Example 3.6]
2 | 13.6 | C[C@@H]1CN(c2ccccc2)CCN1C(=O)c1ccc2c(=O)n(-c3ccc(F)cc3)c(CCCCC(=O)O)cc2c1 [Example 4.2, (R)-5-(2-(4-fluorophenyl)-6-(2-methyl-4-phenylpiperazine-1-carbonyl)-1-oxo-1,2-dihydro-isoquinolin-3-yl)pentanoic acid]
3 | 12.7 | CC(c1ccc(F)cc1)c1nc(-c2ccc3c(=O)n(-c4ccc(F)cc4)c(CCCCC(=O)O)cc3c2)no1 (stereo not shown) [Example 7.3, 5-(2-(4-fluorophenyl)-6-(5-(1-(4-fluorophenyl)ethyl)-1,2,4-oxadiazol-3-yl)-1-oxo-1,2-dihydroisoquinolin-3-yl)pentanoic acid]
4 | 5.16 | C[C@@H](NC(=O)c1ccc2c(=O)n(-c3ccc(F)cc3)c(CCCCC(=O)O)cc2c1)c1ccc(F)cc1 [Example 4.4, (R)-5-(2-(4-fluorophenyl)-6-((1-(4-fluorophenyl)ethyl)carbamoyl)-1-oxo-1,2-dihydroisoquinolin-3-yl)pentanoic acid]
5 | 18.7 | COc1ccccc1-n1c(CCCCC(=O)O)cc2cc(C(=O)N[C@H](C)c3ccc(F)cc3)ccc2c1=O (single isomer, unassigned) [Example 3.7]
6 | 17 | C[C@@H]1CN(c2ccc(F)cc2)CCN1C(=O)c1ccc2c(=O)n(-c3ccc(F)cc3)c(CCCCC(=O)NS(=O)(=O)C3CC3)cc2c1 [Example 8.3, (R)-N-(cyclopropylsulfonyl)-5-(2-(4-fluorophenyl)-6-(4-(4-fluorophenyl)-2-methylpiperazine-1-carbonyl)-1-oxo-1,2-dihydroisoquinolin-3-yl)pentanamide]
7 | 49 | C[C@@H](NC(=O)c1ccc2c(=O)n(Cc3ccc(F)cc3)c(CCCCC(=O)O)cc2c1)c1ccc(F)cc1 [Example 1.2, (R)-5-(2-(4-fluorobenzyl)-6-((1-(4-fluorophenyl)ethyl)carbamoyl)-1-oxo-1,2-dihydroisoquinolin-3-yl)pentanoic acid]
8 | 8.2 | COc1ccc(-n2c(CCCCC(=O)O)cc3cc(C(=O)N[C@H](C)c4ccc(F)cc4)ccc3c2=O)cc1 [Example 3.3, (R)-5-(6-((1-(4-fluorophenyl)ethyl)carbamoyl)-2-(4-methoxyphenyl)-1-oxo-1,2-dihydroisoquinolin-3-yl)pentanoic acid]
9 | 14.8 | O=C(O)CCCCc1cc2cc(-c3noc(-c4ccc(C(F)(F)F)cc4)n3)ccc2c(=O)n1-c1ccc(F)cc1 [Example 7.4, 5-(2-(4-fluorophenyl)-1-oxo-6-(5-(4-(trifluoromethyl)phenyl)-1,2,4-oxadiazol-3-yl)-1,2-dihydroisoquinolin-3-yl)pentanoic acid]
10 | 10.2 | O=C(O)CCCCc1cc2cc(-c3cc(Cc4ccc(F)cc4)on3)ccc2c(=O)n1-c1ccc(F)cc1 [Example 5.1, 5-(6-(5-(4-fluorobenzyl)isoxazol-3-yl)-2-(4-fluorophenyl)-1-oxo-1,2-dihydroisoquinolin-3-yl)pentanoic acid]
11 | 14.8 | C[C@@H](NC(=O)c1ccc2c(=O)n(-c3ccc(F)cc3)c(CCCCC(=O)NS(=O)(=O)C3CC3)cc2c1)c1ccc(F)cc1 [Example 8.2, (R)-3-(5-(cyclopropanesulfonamido)-5-oxopentyl)-2-(4-fluorophenyl)-N-(1-(4-fluorophenyl)ethyl)-1-oxo-1,2-dihydroisoquinoline-6-carboxamide]
12 | 22.5 | C[C@@H]1CN(c2ccc(F)cc2)CCN1C(=O)c1ccc2c(=O)n(-c3ccc(F)cc3)c(CCCCC(=O)O)cc2c1 [Example 4.1, (R)-5-(2-(4-fluorophenyl)-6-(4-(4-fluorophenyl)-2-methylpiperazine-1-carbonyl)-1-oxo-1,2-dihydroisoquinolin-3-yl)pentanoic acid]
13 | 6.5 | O=C(O)CCCCc1cc2cc(C(=O)N[C@@H]3CCCc4cc(F)ccc43)ccc2c(=O)n1-c1ccc(F)cc1 [Example 3.2, (R)-5-(6-((6-fluoro-1,2,3,4-tetrahydronaphthalen-1-yl)carbamoyl)-2-(4-fluorophenyl)-1-oxo-1,2-dihydroisoquinolin-3-yl) pentanoic acid]
14 | 8.84 | C[C@@H](NC(=O)c1ccc2c(=O)n(-c3ccc(C#N)cc3)c(CCCCC(=O)O)cc2c1)c1ccc(F)cc1 [Example 3.4, (R)-5-(2-(4-cyanophenyl)-6-((1-(4-fluorophenyl)ethyl)carbamoyl)-1-oxo-1,2-dihydroisoquinolin-3-yl)pentanoic acid]
15 | 5.79 | O=C(O)CCCCc1cc2cc(C(=O)N[C@@H]3CCCc4ccccc43)ccc2c(=O)n1-c1ccc(F)cc1 [Example 3.1, (R)-5-(2-(4-fluorophenyl)-1-oxo-6-((1,2,3,4-tetrahydronaphthalen-1-yl)carbamoyl)-1,2-dihydroisoquinolin-3-yl)pentanoic acid]
16 | 20.7 | O=C(O)CCCCc1cc2cc(C(=O)NC3CC(=O)Nc4ccccc43)ccc2c(=O)n1-c1ccc(F)cc1 (stereo not shown) [Example 4.3, 5-(2-(4-fluorophenyl)-1-oxo-6-((2-oxo-1,2,3,4-tetrahydroquinolin-4-yl)carbamoyl)-1,2-dihydroisoquinolin-3-yl)pentanoic acid]
17 | 17.2 | O=C(CCCCc1cc2cc(-c3cc(Cc4ccc(F)cc4)on3)ccc2c(=O)n1-c1ccc(F)cc1)NS(=O)(=O)C1CC1 [Example 8.5, N-(cyclopropylsulfonyl)-5-(6-(5-(4-fluorobenzyl)isoxazol-3-yl)-2-(4-fluorophenyl)-1-oxo-1,2-dihydroisoquinolin-3-yl)pentanamide]
18 | 37.7 | C[C@@H](NC(=O)c1ccc2c(=O)n(Cc3ccccc3)c(CCCCC(=O)O)cc2c1)c1ccc(F)cc1 [Example 1.1, (R)-5-(2-benzyl-6-((1-(4-fluorophenyl)ethyl)carbamoyl)-1-oxo-1,2-dihydroisoquinolin-3-yl)pentanoic acid]
19 | 13.1 | COc1cccc(-n2c(CCCCC(=O)O)cc3cc(C(=O)N[C@H](C)c4ccc(F)cc4)ccc3c2=O)c1 [Example 3.5, (R)-5-(6-((1-(4-fluorophenyl)ethyl)carbamoyl)-2-(3-methoxyphenyl)-1-oxo-1,2-dihydroisoquinolin-3-yl)pentanoic acid]
20 | 37.2 | C[C@@H]1CN(c2ccccc2)CCN1C(=O)c1ccc2c(=O)n(-c3ccc(F)cc3)c(CCCCC(=O)NS(=O)(=O)C3CC3)cc2c1 [Example 8.4, (R)-N-(cyclopropylsulfonyl)-5-(2-(4-fluorophenyl)-6-(2-methyl-4-phenylpiperazine-1-carbonyl)-1-oxo-1,2-dihydroisoquinolin-3-yl)pentanamide]
21 | 4920 | C[C@@H](NC(=O)c1ccc2c(=O)n(-c3ccc(F)cc3)c(CC(=O)O)cc2c1)c1ccc(F)cc1 [Example 2.1, (R)-2-(2-(4-fluorophenyl)-6-((1-(4-fluorophenyl)ethyl)carbamoyl)-1-oxo-1,2-dihydroisoquinolin-3-yl)acetic acid]
22 | 17.3 | O=C(CCCCc1cc2cc(-c3noc(Cc4ccc(F)cc4)n3)ccc2c(=O)n1-c1ccc(F)cc1)NS(=O)(=O)C1CC1 [Example 8.6, N-(cyclopropylsulfonyl)-5-(6-(5-(4-fluorobenzyl)-1,2,4-oxadiazol-3-yl)-2-(4-fluorophenyl)-1-oxo-1,2-dihydroisoquinolin-3-yl)pentanamide]
